According to patent publication US20050267114A1, “Triazaspiro[5.5]undecane derivatives and drugs comprising the same as the active ingredient” (priority 2002, published 2005):
Structures can show the parent of a compound that is named as a salt.

Biological target: T1, human CCR5 (Homo sapiens, UniProt P51681)
T1 construct: expressed in transfected cells; host or cells: CHO-dhfr(-) cells stably transfected with plasmid pEF-BOS-bsr/hCCR5
Assay: Inhibition test on the binding of RANTES to CCR5 (RANTES-induced transient increase of Ca ion)
Assay type: cell-based
Conditions: human RANTES 10 nM; CCR5/CHO cell; Ca2+ transient increase
Procedure: (1) Isolation of Human CCR5 Gene
Human placental cDNA was prepared using Marathon cDNA amplification kit (Clontech). PCR primers hCCR5Xbal-F1:
Using the human placental cDNA as the template and using Ex Taq (Takara), PCR reaction (2 minutes at 95° C.→(30 seconds at 95° C., 45 seconds at 60° C., 1 minute at 72° C.)×35 times) was carried out. The thus amplified PCR product was subjected to a 1% agarose gel electrophoresis, purified using QIAquick Gel Extraction Kit (QUIAGEN) and then digested with a restriction enzyme XbaI. The digested fragments were ligated to an expression vector pEF-BOS-bsr using DNA Ligation Kit Ver. 2 (Takara) and transformed into Escherichia coli DH5a. […]
The thus established human CCR5 stably over-expressing CHO cell (CCR5/CHO cell) was suspended in Ham's F-12 medium containing FBS (10%) and dispensed in […] portions into a 96 well plate. […] Transient increase in the intracellular Ca^2+ concentration induced by the human RANTES was measured using a Ca^2+ detector for 96 well use (Hamamatsu Photonics), and inhibition ratio (%) of the test compound was calculated by the following calculation formula. Inhibition ratio=(Ec−Ea)/Ec×100 • Ec: measured value of Ca^2+ transient increase by RANTES • Ea: measured value of Ca^2+ transient increase by RANTES when a test compound was added.

T1 sequence (P51681 whole entry): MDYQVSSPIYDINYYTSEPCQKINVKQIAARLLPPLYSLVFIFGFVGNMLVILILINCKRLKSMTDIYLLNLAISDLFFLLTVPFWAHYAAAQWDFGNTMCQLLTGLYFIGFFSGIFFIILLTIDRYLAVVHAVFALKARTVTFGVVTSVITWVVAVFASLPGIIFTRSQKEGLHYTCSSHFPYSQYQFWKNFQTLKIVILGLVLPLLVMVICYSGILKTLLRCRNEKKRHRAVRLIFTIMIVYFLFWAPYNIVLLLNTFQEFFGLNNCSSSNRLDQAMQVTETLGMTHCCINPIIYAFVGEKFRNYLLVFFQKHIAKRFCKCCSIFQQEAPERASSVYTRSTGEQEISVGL

- IC50: 10 nM
SMILES: CCCCN1C(=O)[C@@H]([C@H](O)C(CC)CC)NC(=O)C12CCN(Cc1ccc(Cc3ccc(C(=O)NC)cc3Cl)cc1)CC2 [Example 3(179), (3R)-1-butyl-2,5-dioxo-3-((1R)-1-hydroxy-2-ethylbutyl)-9-(4-(4-methylaminocarbonyl-2-chlorophenylmethyl)phenylmethyl)-1,4,9-triazaspiro[5.5]undecane hydrochloride]
